Entries after “also recorded” stand apart in the source; their conditions may differ.
Experiments:
Format in all cases: biochemical
[1] = molecular target: Dbs-mediated activation of RhoA (Homo sapiens, UniProt P61586); experiment: fluorescence guanine nucleotide exchange reaction, Dbs-mediated activation of RhoA; conditions: fluorescence after addition of GEF, versus DMSO vehicle control
H-Ras = H-Ras (Homo sapiens, UniProt P01112); experiment: complementary radiolabeled nucleotide exchange assay on H-Ras
Rac1 = Rac1 (Homo sapiens, UniProt P63000); experiment: complementary radiolabeled nucleotide exchange assay on Rac1
RhoA = RhoA (Homo sapiens, UniProt P61586); experiment: complementary radiolabeled nucleotide exchange assay on RhoA
Cdc42 = Cdc42 (Homo sapiens, UniProt P60953); experiment: complementary radiolabeled nucleotide exchange assay on Cdc42
[2] = tested on: Tiam1-mediated activation of Rac1; experiment: fluorescence based guanine nucleotide exchange assay, Tiam1-mediated activation of Rac1
Rap2A = molecular target: T1, Rap2A (Homo sapiens, UniProt P10114); experiment: intrinsic guanine nucleotide exchange of Gpp(NH)p-preloaded Rap2A with mant-GTP (FRET); conditions: 1 μM RGS14 RBD protein, 100 nM Rap2A, 1 μM mant-GTP, 37° C., compared to Rap2A alone, p<0.05
T1 sequence (P10114 1-183): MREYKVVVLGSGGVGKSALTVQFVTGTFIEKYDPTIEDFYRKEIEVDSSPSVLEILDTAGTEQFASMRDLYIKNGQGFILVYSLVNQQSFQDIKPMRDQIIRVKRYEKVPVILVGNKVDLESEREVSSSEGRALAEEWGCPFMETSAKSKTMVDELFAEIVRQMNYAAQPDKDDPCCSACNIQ
Experimental: The intrinsic guanine nucleotide exchange rate of Gpp(NH)p-preloaded Rap2A (100 nM) was monitored with mant-GTP in the absence (solid) or presence (dashed) of the RBD tandem repeat (aa 300-447) from the putative Rap2A effector rat RGS14 (1 μM). In this example, 1 mL cuvettes were loaded with 1 μM mant-GTP (in 50 mM Tris pH 7.5, 5 mM MgCl2, 1 mM EDTA at 37° C.) and allowed to equilibrate prior to the addition of 100 nM Rap2A (preloaded with Gpp(NH)p) in the presence or absence of 1 μM of the RGS14 RBD protein. The dissociation of Gpp(NH)p was then measured by excitation of the tryptophan residue. The FRET-mediated excitation of bound mant-GTP was also measured. Binding of the RGS14 RBD repeat region to activated Rap2A prevents the loss of guanine nucleotide from the G-protein, thereby effectively acting as a guanine nucleotide dissociation inhibitor (GDI). Further, the incubation of Rap2A with the RGS14 tandem RBD repeat region slowed the rate of spontaneous nucleotide exchange by about 30% (p<0.05) when compared to that of Rap2A alone. Curves were fit as single exponential functions using GraphPad Prism™ (GraphPad Software, Inc.). […]

H-Ras, sequence (P01112 whole entry, species assumed): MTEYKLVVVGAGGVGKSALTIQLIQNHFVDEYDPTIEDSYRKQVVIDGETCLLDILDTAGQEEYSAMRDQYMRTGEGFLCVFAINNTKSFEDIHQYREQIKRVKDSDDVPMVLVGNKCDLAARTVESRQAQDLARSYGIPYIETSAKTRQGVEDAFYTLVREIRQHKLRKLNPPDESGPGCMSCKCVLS
Cdc42, sequence (P60953 whole entry, species assumed): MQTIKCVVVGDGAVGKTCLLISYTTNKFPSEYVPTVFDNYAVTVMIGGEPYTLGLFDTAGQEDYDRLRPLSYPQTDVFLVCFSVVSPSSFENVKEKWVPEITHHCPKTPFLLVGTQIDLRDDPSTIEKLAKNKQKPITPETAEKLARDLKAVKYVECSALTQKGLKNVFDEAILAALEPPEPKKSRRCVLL
Dbs-mediated activation of RhoA, sequence (P61586 whole entry): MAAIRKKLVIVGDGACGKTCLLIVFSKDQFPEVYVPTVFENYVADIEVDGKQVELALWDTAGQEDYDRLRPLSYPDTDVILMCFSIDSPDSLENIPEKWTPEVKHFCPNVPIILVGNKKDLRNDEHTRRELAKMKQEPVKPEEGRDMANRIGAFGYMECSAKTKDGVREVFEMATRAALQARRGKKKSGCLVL
RhoA, sequence (P61586 whole entry, species assumed): as the sequence (P61586 whole entry) above

## Nc1nc2c(ncn2[C@@H]2O[C@H](COP(=O)(O)OP(=O)(O)O)[C@@H](O)[C@H]2O)c(=O)[nH]1 [GDP]
[1]
  effect on Dbs-mediated RhoA activation / guanine nucleotide exchange: inhibit guanine nucleotide exchange

## O=C(O)C=Cc1ccc[c]([SbH]([O-])([OH])[OH])c1 [NSC#13778, 3-(3-(dihydroxy(oxido)stibino)phenyl)acrylic acid]
H-Ras
  enhancement of nucleotide exchange on H-Ras: does not enhance nucleotide exchange
Rac1
  activity in complementary radiolabeled assay (Rac1): confirmed
RhoA
  enhancement of nucleotide exchange on RhoA: does not enhance nucleotide exchange
Cdc42
  enhancement of nucleotide exchange on Cdc42: does not enhance nucleotide exchange
[2]; NCI Diversity Set screen, 96-well kinetic format, secondary studies in 1 mL total volume
  effect on GEF-mediated nucleotide exchange on Rac1: accelerated kinetics; also recorded: enhancing Tiam1-mediated Rac1 activation in a dose-dependent manner; also recorded: accelerates GEF-mediated nucleotide exchange on Rac1 in a dose-dependent manner
[2]; acceleration of GEF-mediated nucleotide exchange on Rac1
  EC50: ~4 µM

B1: RGS14 tandem RBD repeat region: RBD tandem repeat (aa 300-447) from the putative Rap2A effector rat RGS14 (protein, UniProt O08773 300-447, looked up, fragment)
chain: KYCCVYLPDGTASLALARPGLTIRDMLAGICEKRGLSLPDIKVYLVGKEQKALVLDQDCTVLADQEVRLENRITFQLELVGLERVVRISAKPTKRLQEALQPILAKHGLSLDQVVLHRPGEKQLVDLENLVSSVASQTLVLDTLPDAK
Rap2A
  slowing of the rate of spontaneous nucleotide exchange of Rap2A: about 30%

Reference: patent US7807400B2, “Methods for identifying chemical modulators of Ras superfamily GTPase activity” (The University of North Carolina at Chapel Hill, priority 2004, dated 2010)
